{
  "source": "ChEMBL document CHEMBL3865792",
  "about": "“Antioxidant and antitumor activity of trolox, trolox succinate, and α-tocopheryl succinate conjugates with nitroxides” (Eur J Med Chem, 2016)",
  "data": [
    {"tested_on": "not listed separately", "assay": "Cytotoxicity against human RPMI8226 cells assessed as reduction in cell viability after 72 hrs by MTT assay", "assay_type": "functional, cell-based", "details": "RPMI-8226, 72 h", "units": {"IC50": "µM"}, "values": [
      {"smiles": "Cc1c(C)c2c(c(C)c1OC(=O)CCC(=O)NC1CC(C)(C)N([O])C1(C)C)CCC(C)(C(=O)NC1CC(C)(C)N([O])C1(C)C)O2", "note": "(stereo not drawn)", "IC50": "> 300"}
    ]},
    {"tested_on": "not listed separately", "assay": "Genotoxicity in Escherichia coli PQ37 expressing lacZ gene assessed as ratio of inducible beta-galactosidase activity to alkaline phosphatase activity at 30 mM after 2 hrs by SOS-chromotest relative to control", "assay_type": "toxicity", "details": "Escherichia coli PQ37 cells expressing lacZ gene, read-out: FC", "values": [
      {"smiles": "Cc1c(C)c2c(c(C)c1OC(=O)CCC(=O)NC1CC(C)(C)N([O])C1(C)C)CCC(C)(C(=O)NC1CC(C)(C)N([O])C1(C)C)O2", "note": "(stereo not drawn)", "fold induction at 2 h, 30000 µM": 1.1}
    ]},
    {"tested_on": "Salmonella typhimurium", "assay": "Genotoxicity in Salmonella typhimurium TA102 harboring […] mutant assessed as frequency of reversion from histidine auxotrophy to prototrophy at 30 mM after 48 hrs by Ames test (reference value: 209 +/- 10 No _unit)", "assay_type": "toxicity, organism-based", "details": "salmonella enterica subsp. enterica serovar typhimurium, 30000 µM", "values": [
      {"smiles": "Cc1c(C)c2c(c(C)c1OC(=O)CCC(=O)NC1CC(C)(C)N([O])C1(C)C)CCC(C)(C(=O)NC1CC(C)(C)N([O])C1(C)C)O2", "note": "(stereo not drawn)", "Activity": 229}
    ]},
    {"tested_on": "not listed separately", "assay": "Ratio of IC50 for human MT4 cells to concentration causing antioxidant activity in Salmonella typhimurium TA102 harboring […] mutant", "assay_type": "functional", "details": "not given", "values": [
      {"smiles": "Cc1c(C)c2c(c(C)c1OC(=O)CCC(=O)NC1CC(C)(C)N([O])C1(C)C)CCC(C)(C(=O)NC1CC(C)(C)N([O])C1(C)C)O2", "note": "(stereo not drawn)", "Ratio": "100 - 1000"}
    ]},
    {"tested_on": "not listed separately", "assay": "Cytotoxicity against human MCF7 cells assessed as reduction in cell viability after 72 hrs by MTT assay", "assay_type": "functional, cell-based", "details": "MCF7, 72 h", "units": {"IC50": "µM"}, "values": [
      {"smiles": "Cc1c(C)c2c(c(C)c1OC(=O)CCC(=O)NC1CC(C)(C)N([O])C1(C)C)CCC(C)(C(=O)NC1CC(C)(C)N([O])C1(C)C)O2", "note": "(stereo not drawn)", "IC50": 86}
    ]},
    {"tested_on": "not listed separately", "assay": "Cytotoxicity against mouse LMTK cells assessed as reduction in cell viability after 72 hrs by MTT assay", "assay_type": "toxicity", "details": "not given", "units": {"IC50 at 72 h": "µM"}, "values": [
      {"smiles": "Cc1c(C)c2c(c(C)c1OC(=O)CCC(=O)NC1CC(C)(C)N([O])C1(C)C)CCC(C)(C(=O)NC1CC(C)(C)N([O])C1(C)C)O2", "note": "(stereo not drawn)", "IC50 at 72 h": "> 300"}
    ]},
    {"tested_on": "not listed separately", "assay": "Cytotoxicity against human HepG2 cells assessed as reduction in cell viability after 72 hrs by MTT assay", "assay_type": "functional, cell-based", "details": "HepG2, 72 h", "units": {"IC50": "µM"}, "values": [
      {"smiles": "Cc1c(C)c2c(c(C)c1OC(=O)CCC(=O)NC1CC(C)(C)N([O])C1(C)C)CCC(C)(C(=O)NC1CC(C)(C)N([O])C1(C)C)O2", "note": "(stereo not drawn)", "IC50": "> 300"}
    ]},
    {"tested_on": "not listed separately", "assay": "Ratio of IC50 for human CEM13 cells to concentration causing antioxidant activity in Salmonella typhimurium TA102 harboring […] mutant", "assay_type": "functional", "details": "not given", "values": [
      {"smiles": "Cc1c(C)c2c(c(C)c1OC(=O)CCC(=O)NC1CC(C)(C)N([O])C1(C)C)CCC(C)(C(=O)NC1CC(C)(C)N([O])C1(C)C)O2", "note": "(stereo not drawn)", "Ratio": "100 - 1000"}
    ]},
    {"tested_on": "not listed separately", "assay": "Ratio of IC50 for human MCF7 cells to concentration causing antioxidant activity in Salmonella typhimurium TA102 harboring […] mutant", "assay_type": "functional", "details": "not given", "values": [
      {"smiles": "Cc1c(C)c2c(c(C)c1OC(=O)CCC(=O)NC1CC(C)(C)N([O])C1(C)C)CCC(C)(C(=O)NC1CC(C)(C)N([O])C1(C)C)O2", "note": "(stereo not drawn)", "Ratio": "100 - 1000"}
    ]},
    {"tested_on": "Salmonella enterica subsp. enterica serovar Typhimurium", "assay": "Antioxidant activity in Salmonella typhimurium TA102 harboring […] mutant assessed as inhibition of t-BuO2H-dependant mutant formation at 0.3 uM preincubated with compound followed by t-BuO2H addition after 48 hrs by Ames test", "assay_type": "functional", "details": "not given", "units": {"inhibition": "%"}, "values": [
      {"smiles": "Cc1c(C)c2c(c(C)c1OC(=O)CCC(=O)NC1CC(C)(C)N([O])C1(C)C)CCC(C)(C(=O)NC1CC(C)(C)N([O])C1(C)C)O2", "note": "(stereo not drawn)", "inhibition": 22}
    ]},
    {"tested_on": "not listed separately", "assay": "Cytotoxicity against human CEM13 cells assessed as reduction in cell viability at 300 uM after 72 hrs by MTT assay", "assay_type": "functional", "details": "CEM13, 72 h", "units": {"inhibition at 300 µM": "%"}, "values": [
      {"smiles": "Cc1c(C)c2c(c(C)c1OC(=O)CCC(=O)NC1CC(C)(C)N([O])C1(C)C)CCC(C)(C(=O)NC1CC(C)(C)N([O])C1(C)C)O2", "note": "(stereo not drawn)", "inhibition at 300 µM": 34}
    ]},
    {"tested_on": "Salmonella enterica subsp. enterica serovar Typhimurium", "assay": "Antioxidant activity in Salmonella typhimurium TA102 harboring […] mutant assessed as inhibition of t-BuO2H-dependant mutant formation at 30 uM preincubated with compound followed by t-BuO2H addition after 48 hrs by Ames test", "assay_type": "functional", "details": "not given", "units": {"inhibition": "%"}, "values": [
      {"smiles": "Cc1c(C)c2c(c(C)c1OC(=O)CCC(=O)NC1CC(C)(C)N([O])C1(C)C)CCC(C)(C(=O)NC1CC(C)(C)N([O])C1(C)C)O2", "note": "(stereo not drawn)", "inhibition": 13}
    ]},
    {"tested_on": "not listed separately", "assay": "Ratio of IC50 for human U937 cells to concentration causing antioxidant activity in Salmonella typhimurium TA102 harboring […] mutant", "assay_type": "functional, U-937", "details": "not given", "values": [
      {"smiles": "Cc1c(C)c2c(c(C)c1OC(=O)CCC(=O)NC1CC(C)(C)N([O])C1(C)C)CCC(C)(C(=O)NC1CC(C)(C)N([O])C1(C)C)O2", "note": "(stereo not drawn)", "Ratio": "100 - 1000"}
    ]},
    {"tested_on": "Salmonella enterica subsp. enterica serovar Typhimurium", "assay": "Antioxidant activity in Salmonella typhimurium TA102 harboring […] mutant assessed as inhibition of t-BuO2H-dependant mutant formation at 3 uM preincubated with compound followed by t-BuO2H addition after 48 hrs by Ames test", "assay_type": "functional", "details": "not given", "units": {"inhibition": "%"}, "values": [
      {"smiles": "Cc1c(C)c2c(c(C)c1OC(=O)CCC(=O)NC1CC(C)(C)N([O])C1(C)C)CCC(C)(C(=O)NC1CC(C)(C)N([O])C1(C)C)O2", "note": "(stereo not drawn)", "inhibition": 20}
    ]},
    {"tested_on": "not listed separately", "assay": "Ratio of IC50 for human HEPG2 cells to concentration causing antioxidant activity in Salmonella typhimurium TA102 harboring […] mutant", "assay_type": "functional", "details": "not given", "values": [
      {"smiles": "Cc1c(C)c2c(c(C)c1OC(=O)CCC(=O)NC1CC(C)(C)N([O])C1(C)C)CCC(C)(C(=O)NC1CC(C)(C)N([O])C1(C)C)O2", "note": "(stereo not drawn)", "Ratio": "100 - 1000"}
    ]},
    {"tested_on": "not listed separately", "assay": "Cytotoxicity against hamster AG17-1 cells assessed as reduction in cell viability after 72 hrs by MTT assay", "assay_type": "toxicity, cell-based, Cricetulus griseus", "details": "Chinese hamster", "units": {"IC50 at 72 h": "µM"}, "values": [
      {"smiles": "Cc1c(C)c2c(c(C)c1OC(=O)CCC(=O)NC1CC(C)(C)N([O])C1(C)C)CCC(C)(C(=O)NC1CC(C)(C)N([O])C1(C)C)O2", "note": "(stereo not drawn)", "IC50 at 72 h": 166}
    ]},
    {"tested_on": "not listed separately", "assay": "Cytotoxicity against human RPMI8226 cells assessed as reduction in cell viability at 300 uM after 72 hrs by MTT assay", "assay_type": "functional", "details": "RPMI-8226, 72 h", "units": {"inhibition at 300 µM": "%"}, "values": [
      {"smiles": "Cc1c(C)c2c(c(C)c1OC(=O)CCC(=O)NC1CC(C)(C)N([O])C1(C)C)CCC(C)(C(=O)NC1CC(C)(C)N([O])C1(C)C)O2", "note": "(stereo not drawn)", "inhibition at 300 µM": 0}
    ]},
    {"tested_on": "not listed separately", "assay": "Cytotoxicity against human CEM13 cells assessed as reduction in cell viability after 72 hrs by MTT assay", "assay_type": "functional, cell-based", "details": "CEM13, 72 h", "units": {"IC50": "µM"}, "values": [
      {"smiles": "Cc1c(C)c2c(c(C)c1OC(=O)CCC(=O)NC1CC(C)(C)N([O])C1(C)C)CCC(C)(C(=O)NC1CC(C)(C)N([O])C1(C)C)O2", "note": "(stereo not drawn)", "IC50": "> 300"}
    ]},
    {"tested_on": "not listed separately", "assay": "Cytotoxicity against human MT4 cells assessed as reduction in cell viability after 72 hrs by MTT assay", "assay_type": "functional, cell-based", "details": "MT4, 72 h", "units": {"IC50": "µM"}, "values": [
      {"smiles": "Cc1c(C)c2c(c(C)c1OC(=O)CCC(=O)NC1CC(C)(C)N([O])C1(C)C)CCC(C)(C(=O)NC1CC(C)(C)N([O])C1(C)C)O2", "note": "(stereo not drawn)", "IC50": 207}
    ]},
    {"tested_on": "not listed separately", "assay": "Cytotoxicity against human U937 cells assessed as reduction in cell viability after 72 hrs by MTT assay", "assay_type": "functional, cell-based", "details": "U-937, 72 h", "units": {"IC50": "µM"}, "values": [
      {"smiles": "Cc1c(C)c2c(c(C)c1OC(=O)CCC(=O)NC1CC(C)(C)N([O])C1(C)C)CCC(C)(C(=O)NC1CC(C)(C)N([O])C1(C)C)O2", "note": "(stereo not drawn)", "IC50": 75}
    ]},
    {"tested_on": "not listed separately", "assay": "Cytotoxicity against human HepG2 cells assessed as reduction in cell viability at 300 uM after 72 hrs by MTT assay", "assay_type": "functional", "details": "HepG2, 72 h", "units": {"inhibition at 300 µM": "%"}, "values": [
      {"smiles": "Cc1c(C)c2c(c(C)c1OC(=O)CCC(=O)NC1CC(C)(C)N([O])C1(C)C)CCC(C)(C(=O)NC1CC(C)(C)N([O])C1(C)C)O2", "note": "(stereo not drawn)", "inhibition at 300 µM": 15}
    ]},
    {"tested_on": "not listed separately", "assay": "Cytotoxicity against mouse LMTK cells assessed as reduction in cell viability at 300 uM after 72 hrs by MTT assay", "assay_type": "toxicity", "details": "read-out: INH", "units": {"cytotoxicity at 72 h, 300 µM": "%"}, "values": [
      {"smiles": "Cc1c(C)c2c(c(C)c1OC(=O)CCC(=O)NC1CC(C)(C)N([O])C1(C)C)CCC(C)(C(=O)NC1CC(C)(C)N([O])C1(C)C)O2", "note": "(stereo not drawn)", "cytotoxicity at 72 h, 300 µM": 10}
    ]},
    {"tested_on": "not listed separately", "assay": "Ratio of IC50 for human RPMI8226 cells to concentration causing antioxidant activity in Salmonella typhimurium TA102 harboring […] mutant", "assay_type": "functional, RPMI-8226", "details": "not given", "values": [
      {"smiles": "Cc1c(C)c2c(c(C)c1OC(=O)CCC(=O)NC1CC(C)(C)N([O])C1(C)C)CCC(C)(C(=O)NC1CC(C)(C)N([O])C1(C)C)O2", "note": "(stereo not drawn)", "Ratio": "100 - 1000"}
    ]}
  ]
}
